The target in assay [1] is T1, Steryl-sulfatase (Homo sapiens) (UniProt P08842).
T1 sequence (whole entry): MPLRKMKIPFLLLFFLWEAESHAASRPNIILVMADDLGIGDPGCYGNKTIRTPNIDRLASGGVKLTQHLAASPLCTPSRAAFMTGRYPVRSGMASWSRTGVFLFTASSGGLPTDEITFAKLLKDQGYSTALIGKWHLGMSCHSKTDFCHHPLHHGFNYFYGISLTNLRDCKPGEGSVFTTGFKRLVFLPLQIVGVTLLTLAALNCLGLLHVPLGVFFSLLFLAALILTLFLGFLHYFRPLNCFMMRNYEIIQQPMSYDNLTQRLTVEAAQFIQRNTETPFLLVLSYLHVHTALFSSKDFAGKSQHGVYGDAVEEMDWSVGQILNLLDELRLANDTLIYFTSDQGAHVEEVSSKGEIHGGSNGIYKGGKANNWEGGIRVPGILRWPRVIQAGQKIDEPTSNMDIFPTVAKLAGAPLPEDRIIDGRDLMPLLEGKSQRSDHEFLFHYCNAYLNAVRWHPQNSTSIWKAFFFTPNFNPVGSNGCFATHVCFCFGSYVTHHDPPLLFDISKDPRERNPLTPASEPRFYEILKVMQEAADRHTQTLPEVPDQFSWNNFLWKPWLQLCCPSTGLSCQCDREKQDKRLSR
Briefly: Compound was tested for percent inhibitory activity against Estrone sulfatase 1 (E1-STS) at 0.10 uM in placental microsomes. The settings on record: Placenta.

Assay [2] addresses T1, Steryl-sulfatase (Homo sapiens). Nature of the assay: Compound was tested for percent inhibitory activity against Estrone sulfatase 1 (E1-STS) at 0.20 uM in placental microsomes. The following applies: Placenta.
The target is the same in assay [3]. Nature of the assay: Compound was tested for percent inhibitory activity against Estrone sulfatase 1 (E1-STS) at 10 uM in placental microsomes. The following applies: Placenta.
Assay [4] has the same target. Briefly: Compound was tested for percent inhibitory activity against Estrone sulfatase 1 (E1-STS) at 25 uM in placental microsomes. The settings on record: Placenta.
Assay [5] shares this target. Nature of the assay: In vitro percentage inhibition of Estrone sulfatase 1 (EI-STS) activity at concentration of 0.1 micro M in intact MCF-7 breast cancer cells. It is filed as cell-based. The settings on record: MCF7.
For assay [6] the target is unchanged. Briefly: Compound was tested for percent inhibitory activity against Estrone sulfatase 1 (E1-STS) at 100 uM in placental microsomes. The following applies: Placenta.
Assay [7] shares this target. Nature of the assay: Compound was tested for percent inhibitory activity against Estrone sulfatase 1 (E1-STS) at 20 uM in placental microsomes. The settings on record: Placenta.
For assay [8] the target is unchanged. Nature of the assay: Compound was tested for percent inhibitory activity against Estrone sulfatase 1 (E1-STS) at 50 uM in placental microsomes. The following applies: Placenta.
Assay [9] has as its target T2, Steryl-sulfatase (Rattus norvegicus) (UniProt P15589).
T2 sequence (whole entry): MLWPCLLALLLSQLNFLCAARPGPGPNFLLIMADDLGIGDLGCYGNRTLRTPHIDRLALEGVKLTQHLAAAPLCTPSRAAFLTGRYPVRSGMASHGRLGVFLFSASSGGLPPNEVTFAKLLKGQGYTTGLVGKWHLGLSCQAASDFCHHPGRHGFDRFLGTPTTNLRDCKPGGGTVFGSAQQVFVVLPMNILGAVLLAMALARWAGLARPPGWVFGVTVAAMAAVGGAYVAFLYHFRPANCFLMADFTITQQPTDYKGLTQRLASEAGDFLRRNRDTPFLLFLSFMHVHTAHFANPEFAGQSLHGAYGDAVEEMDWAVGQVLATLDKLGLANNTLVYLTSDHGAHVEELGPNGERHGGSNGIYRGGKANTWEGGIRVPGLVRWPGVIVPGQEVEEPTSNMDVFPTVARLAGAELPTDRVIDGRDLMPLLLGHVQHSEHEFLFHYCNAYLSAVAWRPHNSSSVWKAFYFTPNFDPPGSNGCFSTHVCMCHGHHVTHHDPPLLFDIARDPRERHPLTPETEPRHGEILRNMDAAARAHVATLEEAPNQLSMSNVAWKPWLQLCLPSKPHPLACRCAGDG
Nature of the assay: In vivo inhibition of rat liver Estrone sulfatase 1 (E1-STS) by oral or subcutaneous dose; Almost complete inhibition. Type of assay: organism-based.

Assay [10] concerns the target T1, Steryl-sulfatase (Homo sapiens). The following applies: Placenta; Microsomes; 0.1 uM.
Description: Compound was tested for percent inhibitory activity against Estrone sulfatase 1 (E1-STS) at 0.1 uM in placental microsomes
Assay [11] shares this target. The following applies: Placenta; Microsomes; 0.2 uM.
Description: Compound was tested for percent inhibitory activity against Estrone sulfatase 1 (E1-STS) at 0.2 uM in placental microsomes
For assay [12] the target is unchanged. The settings on record: Placenta; Microsomes; 1.0 uM.
Description: Compound was tested for percent inhibitory activity against Estrone sulfatase 1 (E1-STS) at 1.0 uM in placental microsomes

Active and inactive are the calls of the source. The rule behind the calls is not given here. A value given as a limit tells only on which side of the number the result lay.

As usually defined, the inhibition is the drop in the measured response relative to a control, in per cent.

On to `CC(=O)NS(=O)(=O)Oc1ccc2c(c1)CCC1[C@@H]2CC[C@]2(C)C(=O)CC[C@@H]12` (single isomer, unassigned), for which the inhibition in assay [1] was 63%; in [2] it was 30%; in assay [3], 92%; in assay [4], more than 99%.

`CN(C)S(=O)(=O)Oc1ccc2c(c1)CCC1[C@@H]2CC[C@]2(C)C(=O)CC[C@@H]12` (single isomer, unassigned): the inhibition in [5] turned out to be 50%.

Regarding `CNS(=O)(=O)Oc1ccc2c(c1)CCC1[C@@H]2CC[C@]2(C)C(=O)CC[C@@H]12` (single isomer, unassigned), in [5], the inhibition was 80%.

Take `C[C@]12CC[C@@H]3c4ccc(OS(=O)(=O)N(Cc5ccccc5)Cc5ccccc5)cc4CCC3[C@@H]1CCC2=O` (single isomer, unassigned): the inhibition in [6] is 75%; in assay [7], 43%; in [8], 63%.

For `C[C@]12CC[C@@H]3c4ccc(OS(=O)(=O)N5CCCCC5)cc4CCC3[C@@H]1CCC2=O` (single isomer, unassigned), the inhibition in [6] amounted to 20%; in [7], 13%; in assay [8], 17%.

Turning to `C[C@]12CC[C@@H]3c4ccc(OS(N)(=O)=O)cc4CCC3[C@@H]1CCC2=O` (single isomer, unassigned), in assay [9], the inhibition entry is “Active”. The inhibition in assay [10] stood at 50%; in assay [11], 82%; in assay [12], 95%.

Source of the values: ChEMBL document CHEMBL1129812, “Oestrone 3-O-(N-acetyl)sulphamate, a potential molecular probe of the active site of oestrone sulphatase” (Bioorg Med Chem Lett, 1997).
